# According to patent US3965109A, “Certain aryl amino pyridines” (priority 1971, dated 1976):
# Legend:
# [1] = test system: Venturia inaequalis (apple); assay: Fungicidal test against foliar disease G (foliage spray plus soil drench); format: in vivo; details: 100 ppm spray and drench; 21 days
# Protocol: This Example illustrates the fungicidal properties of compounds used as active ingredients in the compositions of the invention. The compounds were tested against a wide variety of foliar fungal diseases of plants. In the test, a composition comprising an aqueous solution or suspension of the test compound was sprayed on to the foliage or uninfected plants; the soil in which the plants were growing was also drenched with the composition. The compositions used for spraying and drencing contained 100 parts per million (ppm.) of the test compound except where otherwise stated in the table of results below. After spraying and drenching, the plants were then exposed to infection with the diseases it was desired to control, along with control plants not treated with the compound. After a period of days, depending upon the particular disease, the extent of the disease was visually assessed, as a percentage of the disease established upon the control plants which had not been treated with the compound under test, according to the grading scheme below
# In Table 2 below the names of the disease is given in the first column, and in the second column is given the time which elapsed between exposing the plants to infection and assessing the amount of disease.
# [2] = test system: Tetranychus telarius (red spider mites, adults); assay: Pest toxicity test; format: in vivo; details: 0.1% by weight; French bean; 3 days
# [3] = test system: Tetranychus telarius (red spider mites, eggs); assay: Pest toxicity test; format: in vivo; details: 0.1% by weight; French bean; 3 days
# [4] = test system: Aphis fabae; assay: Pest toxicity test; format: in vivo; details: 0.1% by weight; broad bean; 2 days
# [5] = test system: Megoura viceae; assay: Pest toxicity test; format: in vivo; details: 0.1% by weight; broad bean; 2 days
# [6] = test system: Aedes aegypti (mosquito larvae); assay: Pest toxicity test; format: in vivo; details: 0.01% by weight; water; 1 day
# [7] = test system: Aedes aegypti (mosquito adults); assay: Pest toxicity test; format: in vivo; details: 0.01% by weight; plywood; 1 day
# [8] = test system: Musca domestica (houseflies); assay: Pest toxicity test, contact test; format: in vivo; details: 0.1% by weight; milk/sugar; 2 days; flies sprayed directly
# [9] = test system: Pieris brassicae (cabbage white caterpillars); assay: Pest toxicity test; format: in vivo; details: 0.1% by weight, 2 days
# [10] = test system: Plutella maculipennis (diamond back moth larvae); assay: Pest toxicity test; format: in vivo; details: in vivo
# [11] = test system: Phaedon cochleariae (mustard beetles); assay: Pest toxicity test; format: in vivo; details: in vivo
# [12] = test system: Lettuce; assay: Herbicidal test, pre- and post-emergence; format: in vivo; details: 10 lb/acre (11.2 kg/ha); scale 0 (no effect) to 3 (complete kill)
# [13] = test system: Tomato; assay: Herbicidal test, pre- and post-emergence; format: in vivo; details: 10 lb/acre (11.2 kg/ha); scale 0 (no effect) to 3 (complete kill)
# [14] = test system: Wheat; assay: Herbicidal test, pre- and post-emergence; format: in vivo; details: 10 lb/acre (11.2 kg/ha); scale 0 (no effect) to 3 (complete kill)
# [15] = test system: Maize; assay: Herbicidal test, pre- and post-emergence; format: in vivo; details: 10 lb/acre (11.2 kg/ha); scale 0 (no effect) to 3 (complete kill)
# [16] = test system: Sugar beet; assay: Further herbicidal test, various rates; format: in vivo; details: 5 lb/acre; scale 0 to 5 (complete kill)
# [17] = test system: Kale; assay: Further herbicidal test, various rates; format: in vivo; details: 5 lb/acre; scale 0 to 5 (complete kill)
# [18] = test system: Carrot; assay: Further herbicidal test, various rates; format: in vivo; details: 5 lb/acre; scale 0 to 5 (complete kill)
# [19] = test system: Pea; assay: Further herbicidal test, various rates; format: in vivo; details: 5 lb/acre; scale 0 to 5 (complete kill)
# [20] = test system: Onion; assay: Further herbicidal test, various rates; format: in vivo; details: 5 lb/acre; scale 0 to 5 (complete kill)
# [21] = test system: Barley; assay: Further herbicidal test, various rates; format: in vivo; details: 5 lb/acre; scale 0 to 5 (complete kill)
# [22] = test system: Rice; assay: Further herbicidal test, various rates; format: in vivo; details: 5 lb/acre; scale 0 to 5 (complete kill)
# [23] = test system: Oat; assay: Further herbicidal test, various rates; format: in vivo; details: 5 lb/acre; scale 0 to 5 (complete kill)
# [24] = test system: Agrobacterium tumifaciens; assay: Antibacterial agar test (B1); format: cell-based; details: 50 ppm; 5 days
# [25] = test system: Corynebacterium michiganense; assay: Antibacterial agar test (B2); format: cell-based; details: 50 ppm; 5 days
# Method in brief: (§1)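 Compound was dissolved or suspended in acetone and mixed into nutrient agar to 50 ppm final, then dried overnight in Petri dishes. Plates were inoculated with the bacteria via multipoint inoculator and antibacterial activity was graded after 5 days.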
# [26] = test system: Xanthomonas malvacearum; assay: Antibacterial agar test (B3); format: cell-based; details: 50 ppm; 5 days
# Method in brief: as §1
# [27] = test system: Erwinia carotovora; assay: Antibacterial agar test (B4); format: cell-based; details: 50 ppm; 5 days
# [28] = test system: Xanthomonas oryzae; format: cell-based; details: 50 ppm; 5 days
# [29] = test system: Pseudomonas syringae; assay: Antibacterial agar test (B6); format: cell-based; details: 50 ppm; 5 days
# [30] = test system: Streptomyces scabies; assay: Antibacterial agar test (B7); format: cell-based; details: 50 ppm; 5 days
# [31] = test system: larvae of the blowfly (Lucilia serrata); assay: Insecticidal test on blowfly larvae on treated filter paper; format: in vivo; set-up: key: 5 represents inseccticidal activity equal to that of the known insecticide; 6 represents activity 10 times that of the standard; details: scale of 1 to 6; filter paper with horse serum
compound,measurement,setting,value
"N#Cc1c(F)c(F)c(Nc2c(Cl)c(F)nc(F)c2Cl)c(F)c1F [Compound 19, 4(4-Cyano-2,3,5,6-tetrafluoroanilino)-3,5-dichloro-2,6-difluoropyridine]","Amount of disease grading, disease G",[1],3 (0 to 5)
same,Mortality grading (kill),[2],3 (3 represents over 90% kill)
same,Mortality grading (kill),[3],3 (3 represents over 90% kill)
same,Mortality grading (kill),[4],3 (3 represents over 90% kill)
same,Mortality grading (kill),[5],3 (3 represents over 90% kill)
same,Mortality grading (kill),[6],3 (3 represents over 90% kill)
same,Mortality grading (kill),[7],3 (3 represents over 90% kill)
same,"Mortality grading (kill), contact test",[8],3 (3 represents over 90% kill)
same,Mortality grading (kill),[9],2 (2 represents 60 - 90% kill)
same,Mortality grading (kill),[10],0 (key: O represents less than 30% kill; 1 represents 30 - 49% kill; 2 represents 60 - 90% kill; 3 represents over 90% kill; C indicates a chemosterilant effect.; A indicates an antifeeding effect.)
same,Mortality grading (kill),[11],0 (key: O represents less than 30% kill; 1 represents 30 - 49% kill; 2 represents 60 - 90% kill; 3 represents over 90% kill; C indicates a chemosterilant effect.; A indicates an antifeeding effect.)
same,"Damage to plants, post-emergence",[12],3
same,"Damage to plants, pre-emergence",[12],3
same,"Damage to plants, post-emergence",[13],3
same,"Damage to plants, pre-emergence",[13],3
same,"Damage to plants, post-emergence",[14],2
same,"Damage to plants, pre-emergence",[14],3
same,"Damage to plants, post-emergence",[15],1
same,"Damage to plants, pre-emergence",[15],3
same,"Damage to plants, post-emergence",[16],2
same,"Damage to plants, post-emergence",[17],3
same,"Damage to plants, post-emergence",[18],0
same,"Damage to plants, post-emergence",[19],0
same,"Damage to plants, post-emergence",[20],1
same,"Damage to plants, post-emergence",[21],2
same,"Damage to plants, post-emergence",[22],2
same,"Damage to plants, post-emergence",[23],0
same,Antibacterial activity grading B1,[24],3 (0 to 5)
same,Antibacterial activity grading B2,[25],3 (0 to 5)
same,Antibacterial activity grading B3,[26],3 (0 to 5)
same,Antibacterial activity grading B4,[27],3 (0 to 5)
same,Antibacterial activity grading B5,[28],3 (0 to 5)
same,Antibacterial activity grading B6,[29],3 (0 to 5)
same,Antibacterial activity grading B7,[30],3 (0 to 5)
same,Activity relative to lindane,[31],5
